From ChEMBL document CHEMBL2163271, “Antitumor agents 295. E-ring hydroxylated antofine and cryptopleurine analogues as antiproliferative agents: design, synthesis, and mechanistic studies” (J Med Chem, 2012)

System: not listed separately
Test: Cytotoxicity against human KBVIN cells overexpressing P-gp after 2 hrs by methylene blue staining-based spectrophotometric analysis
Format: functional, cell-based
Conditions: not given
`COc1ccc2c3c(c4cc(OC)c(OC)cc4c2c1)C[C@H]1C[C@H](O)CN1C3` showed an IC50 of 2210 nM.
Compound `COc1ccc2c3c(c4cc(OC)c(OC)cc4c2c1)C[C@H]1C[C@@H](OC)CCN1C3` has an IC50 of 3690 nM.
With `COc1ccc2c3c(c4cc(OC)c(OC)cc4c2c1)C[C@H]1CC(=O)CCN1C3` the IC50 was 43 nM.
`COc1ccc2c3c(c4cc(OC)c(OC)cc4c2c1)C[C@H]1C[C@@H](O)[C@H](O)CN1C3` gave an IC50 of 12600 nM.
Work on `CC[C@@]1(O)CCN2Cc3c(c4cc(OC)c(OC)cc4c4cc(OC)ccc34)C[C@H]2C1` yielded an IC50 of 870 nM.
With `COc1ccc2c3c(c4cc(OC)c(OC)cc4c2c1)C[C@H]1C[C@H](OC)CCN1C3` the IC50 was 66 nM.
In the case of `COc1ccc2c3c(c4cc(OC)c(OC)cc4c2c1)C[C@H]1[C@@H](O)CCN1C3`, the IC50 is reported as 3420 nM.
`COC1=C[C@@H]2Cc3c(c4ccc(OC)cc4c4cc(OC)c(OC)cc34)CN2C1` gave an IC50 of 2640 nM.
Work on `COc1ccc2c3c(c4cc(OC)c(OC)cc4c2c1)C[C@H]1C[C@@H](O)CN1C3` yielded an IC50 of 640 nM.
In the case of `COc1ccc2c3c(c4cc(OC)c(OC)cc4c2c1)C[C@H]1CC[C@@H](O)CN1C3`, the IC50 is reported as 45 nM.
In the case of `COc1ccc2c3c(c4cc(OC)c(OC)cc4c2c1)C[C@H]1CCCN1C3` [(-)-ANTOFINE], the IC50 is reported as 25 nM.

System: A549
Test: Cytotoxicity against human A549 cells after 2 hrs by methylene blue staining-based spectrophotometric analysis
Format: functional, cell-based
Conditions: A549, 2 h
In the case of `COc1ccc2c3c(c4cc(OC)c(OC)cc4c2c1)C[C@H]1C[C@H](O)CN1C3`, the IC50 is reported as 2270 nM.
With `COc1ccc2c3c(c4cc(OC)c(OC)cc4c2c1)C[C@H]1C[C@@H](OC)CCN1C3` the IC50 was 7110 nM.
Work on `COc1ccc2c3c(c4cc(OC)c(OC)cc4c2c1)C[C@H]1CC(=O)CCN1C3` yielded an IC50 of 28 nM.
In the case of `COc1ccc2c3c(c4cc(OC)c(OC)cc4c2c1)C[C@H]1C[C@@H](O)[C@H](O)CN1C3`, the IC50 is reported as 14500 nM.
For `CC[C@@]1(O)CCN2Cc3c(c4cc(OC)c(OC)cc4c4cc(OC)ccc34)C[C@H]2C1`, the IC50 was 990 nM.
Compound `COc1ccc2c3c(c4cc(OC)c(OC)cc4c2c1)C[C@H]1C[C@H](OC)CCN1C3` has an IC50 of 25 nM.
Compound `COc1ccc2c3c(c4cc(OC)c(OC)cc4c2c1)C[C@H]1[C@@H](O)CCN1C3` has an IC50 of 2810 nM.
With `COC1=C[C@@H]2Cc3c(c4ccc(OC)cc4c4cc(OC)c(OC)cc34)CN2C1` the IC50 was 5970 nM.
In the case of `COc1ccc2c3c(c4cc(OC)c(OC)cc4c2c1)C[C@H]1C[C@@H](O)CN1C3`, the IC50 is reported as 610 nM.
Compound `COc1ccc2c3c(c4cc(OC)c(OC)cc4c2c1)C[C@H]1CC[C@@H](O)CN1C3` has an IC50 of 82 nM.

System: SK-BR-3
Test: Cytotoxicity against human SKBR3 cells after 2 hrs by methylene blue staining-based spectrophotometric analysis
Format: functional, cell-based
Conditions: SK-BR-3, 2 h
With `COc1ccc2c3c(c4cc(OC)c(OC)cc4c2c1)C[C@H]1CC[C@@H](O)CN1C3` the IC50 was 348 nM.

System: KB
Test: Cytotoxicity against human KB cells after 2 hrs by methylene blue staining-based spectrophotometric analysis
Format: functional, cell-based
Conditions: not given
Work on `COc1ccc2c3c(c4cc(OC)c(OC)cc4c2c1)C[C@H]1C[C@H](O)CN1C3` yielded an IC50 of 1810 nM.
`COc1ccc2c3c(c4cc(OC)c(OC)cc4c2c1)C[C@H]1C[C@@H](OC)CCN1C3` showed an IC50 of 5240 nM.
Compound `COc1ccc2c3c(c4cc(OC)c(OC)cc4c2c1)C[C@H]1CC(=O)CCN1C3` has an IC50 of 50 nM.
With `COc1ccc2c3c(c4cc(OC)c(OC)cc4c2c1)C[C@H]1C[C@@H](O)[C@H](O)CN1C3` the IC50 was 17500 nM.
Compound `CC[C@@]1(O)CCN2Cc3c(c4cc(OC)c(OC)cc4c4cc(OC)ccc34)C[C@H]2C1` has an IC50 of 920 nM.
Compound `COc1ccc2c3c(c4cc(OC)c(OC)cc4c2c1)C[C@H]1C[C@H](OC)CCN1C3` has an IC50 of 100 nM.
Compound `COc1ccc2c3c(c4cc(OC)c(OC)cc4c2c1)C[C@H]1[C@@H](O)CCN1C3` has an IC50 of 1830 nM.
With `COC1=C[C@@H]2Cc3c(c4ccc(OC)cc4c4cc(OC)c(OC)cc34)CN2C1` the IC50 was 12000 nM.
For `COc1ccc2c3c(c4cc(OC)c(OC)cc4c2c1)C[C@H]1C[C@@H](O)CN1C3`, the IC50 was 780 nM.
For `COc1ccc2c3c(c4cc(OC)c(OC)cc4c2c1)C[C@H]1CC[C@@H](O)CN1C3`, the IC50 was 33 nM.

System: DU-145
Test: Cytotoxicity against human DU145 cells after 2 hrs by methylene blue staining-based spectrophotometric analysis
Format: functional, cell-based
Conditions: DU-145, 2 h
In the case of `COc1ccc2c3c(c4cc(OC)c(OC)cc4c2c1)C[C@H]1C[C@H](O)CN1C3`, the IC50 is reported as 1800 nM.
In the case of `COc1ccc2c3c(c4cc(OC)c(OC)cc4c2c1)C[C@H]1C[C@@H](OC)CCN1C3`, the IC50 is reported as 3570 nM.
In the case of `COc1ccc2c3c(c4cc(OC)c(OC)cc4c2c1)C[C@H]1CC(=O)CCN1C3`, the IC50 is reported as 45 nM.
Compound `COc1ccc2c3c(c4cc(OC)c(OC)cc4c2c1)C[C@H]1C[C@@H](O)[C@H](O)CN1C3` has an IC50 of 1710 nM.
`CC[C@@]1(O)CCN2Cc3c(c4cc(OC)c(OC)cc4c4cc(OC)ccc34)C[C@H]2C1` gave an IC50 of 770 nM.
With `COc1ccc2c3c(c4cc(OC)c(OC)cc4c2c1)C[C@H]1C[C@H](OC)CCN1C3` the IC50 was 56 nM.
Compound `COc1ccc2c3c(c4cc(OC)c(OC)cc4c2c1)C[C@H]1[C@@H](O)CCN1C3` has an IC50 of 3200 nM.
`COC1=C[C@@H]2Cc3c(c4ccc(OC)cc4c4cc(OC)c(OC)cc34)CN2C1` showed an IC50 of 10300 nM.
Work on `COc1ccc2c3c(c4cc(OC)c(OC)cc4c2c1)C[C@H]1C[C@@H](O)CN1C3` yielded an IC50 of 700 nM.
`COc1ccc2c3c(c4cc(OC)c(OC)cc4c2c1)C[C@H]1CC[C@@H](O)CN1C3` showed an IC50 of 66 nM.
